Laboratory results as given in publication PMC11882969 (Nature Communications, 2025).
Values joined by “and” are separate entries in the source; they are usually repeats but may differ in a detail not shown here. Equal entries are not always repeated. Where two headings read alike, the source gives them in different places.

What was measured:
CB1R = test: Bimane fluorescence of labeled CB1R; format: biochemical, human; details: 10 μM ligand; apo 459 nm
Experimental: A minimal cysteine version of CB1R was generated[85] where all the cysteine residues (except C256 and C264) were mutated to alanine. […] Excess label was removed using size exclusion chromatography on a Superdex 200 10/300 Increase column in 20 mM HEPES pH 7.5, 100 mM NaCl and 0.01% MNG/0.001% CHS. Bimane-labeled CB1R at […] was incubated with ligands (10 μM) for one hour at room temperature. Fluorescence data was collected at room temperature in a 150 μL cuvette with a FluorEssence v3.8 software on a Fluorolog instrument (Horiba) in photon-counting mode. Bimane fluorescence was measured by excitation at 370 nm with excitation and emission bandwidth passes of 4 nm. The emission spectra were recorded from 410 to 510 nm with 1 nm increment and 0.1 s integration time.

mice [1] = system: mice
Experimental: For all behavioral tests, the experimenter was always blind to treatment. Animals were first habituated for 30-60 min in Plexiglas cylinders and then tested 30 min after i.p. or i.t. injection of the compounds. The thermal (Hargreaves, hotplate and tail flick) and ambulatory (rotarod) tests were conducted as described[96]. Briefly, hindpaw thermal sensitivity was measured with a radiant heat source (Hargreaves) or on a hotplate at 52 °C. For the tail flick assay, sensitivity was measured by immersing the tail into a 50 °C water bath. For the ambulatory (rotarod) test, before testing with any compound, mice underwent three trainings on three consecutive days until they reach 300 sec. Each training has three sessions of five min each. Therapeutic window was calculated as the ratio of the minimum dose of side effect phenotype to the minimum dose of analgesic phenotype.

hCB2 = hCB2 (Homo sapiens, UniProt P34972); test: Radioligand competition binding, HEK293 cells expressing human CB2R; design: expressed in transfected cells; host or cells: HEK293 cells stably expressing human CB2R (Laboratory of Ken Mackie); details: hCB2, log[drug], replicate columns
mice [2] = test: Catalepsy test, vertical wire mesh; format: in vivo, mouse; details: for Individual animal values (FigS11d): test not printed on the sheet
Experimental: Thirty min after an i.p. injection of the compounds, mice were placed on a vertical wire mesh and the latency to move all four paws was recorded.

mice [3] = test: Acetone test, cold allodynia after spared nerve injury; format: in vivo, mouse
Experimental: Mice were placed on a wire mesh and thirty min after an i.p. injection of the compounds we applied a drop (50 μL) of acetone on the ventral aspect of the hindpaw, 5 times every 30 sec. We recorded the number of nocifensive behaviors (paw lifts/licks/shakes/bites) over the 5 applications.

mice [4] = test: Tail flick, 50 °C water bath; format: in vivo, mouse; details: for analgesic response normalised to baseline, WT vs CB1R KO (Figure5d), individual animals / Response relative to Baseline, individual animals (FigS11c): 0.2 mg/kg; for Response relative to Baseline, individual animals (FigS11c): test not printed on the sheet

Chain of hCB2 (P34972 whole entry): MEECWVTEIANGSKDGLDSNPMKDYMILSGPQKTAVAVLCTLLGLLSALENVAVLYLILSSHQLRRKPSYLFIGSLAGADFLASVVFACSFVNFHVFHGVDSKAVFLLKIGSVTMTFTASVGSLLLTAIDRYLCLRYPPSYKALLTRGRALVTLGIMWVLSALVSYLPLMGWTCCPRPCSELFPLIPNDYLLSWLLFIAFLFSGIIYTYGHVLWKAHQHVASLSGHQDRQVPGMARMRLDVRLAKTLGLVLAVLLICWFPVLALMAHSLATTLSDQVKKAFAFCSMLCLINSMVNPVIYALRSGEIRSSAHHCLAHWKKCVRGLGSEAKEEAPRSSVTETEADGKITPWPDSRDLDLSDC

With `COC(=O)[C@](C)(NC(=O)c1cc(C)n(-c2cccc(C(F)(F)F)c2)n1)c1cccs1` [‘8690] the “bimane spectrum λmax” value (CB1R) was 459 nm.

With `COC(=O)[C@@](C)(NC(=O)c1cc(C)n(-c2cccc(C(F)(F)F)c2)n1)c1cccs1` [‘1350] the “therapeutic window, Acetone” value (mice [1]; Figure 6e, vs rotarod) was 10, the “therapeutic window, Hot Plate” value (mice [1]; Figure 6e, vs rotarod) was 5 and the “therapeutic window, Tail Flick” value (mice [1]; Figure 6e, vs rotarod) was 5. For the same molecule, the “therapeutic window, analgesia vs catalepsy” value (mice [1]; Figure 6f) was “at least a ten-fold window”, the “therapeutic window, Acetone” value (mice [1]; Figure 6d, vs open field) was 4 and the “therapeutic window, Hot Plate” value (mice [1]; Figure 6d, vs open field) was 2. The “therapeutic window, Tail Flick” value (mice [1]; Figure 6d, vs open field) was 2, the “therapeutic window, analgesia vs hypolocomotion, sedation, catalepsy” value (mice [1]; mice) was 2-10 fold and 2-20 fold and the “radioligand binding, competition curve point (normalized)” value (from here on “radioligand binding … (normalized)”) (hCB2; M = -6.64345) was 1.586 and -0.1332. The “radioligand binding … (normalized)” value (hCB2; M = -7.35666) was 2.208 and 1.359, the “radioligand binding … (normalized)” value (hCB2; M = -8.06987) was 13.0908 and 10.365 and the “radioligand binding … (normalized)” value (hCB2; M = -8.78308) was 37.5933 and 37.49. The “radioligand binding … (normalized)” value (hCB2; M = -9.49629) was 71.1443 and 45.0839, the “radioligand binding … (normalized)” value (hCB2; M = -10.2095) was 95.3669 and 77.3781 and the “radioligand binding … (normalized)” value (hCB2; M = -10.9227) was 103.545 and 89.3952. The “radioligand binding … (normalized)” value (hCB2; M = -11.6359) was 105.504 and 103.118, the “bimane spectrum λmax” value (CB1R) was 463 nm and the “catalepsy (Figure6c), individual animals” value (mice [2]; 0.2 mg/kg dose) was 7 and 4 and 15 and 2 (2×). For the same molecule, the “catalepsy (Figure6c), individual animals” value (mice [2]; 0.5 mg/kg dose) was 2 and 10 and 30 and 20 and 5 and 0.5 and 2.4 and 2.2 and 2.3 and 0.7 and 1 and 2.7 and 2.9 and 2.1 and 1.4, the “catalepsy (Figure6c), individual animals” value (mice [2]; 1 mg/kg dose) was 16 and 5 and 4 and 30 and 6 and the “catalepsy at a sedating dose” value (mice [2]; 1 mg/kg i.p.) was “non-significant, but nevertheless, increased latency to move the paws”. For the same molecule, the “catalepsy in CB1R knockout” value (mice [2]; 1 mg/kg, CB1R KO mice) was “eliminated this minimal cataleptic effect”, the “catalepsy in CB2R knockout” value (mice [2]; 1 mg/kg, CB2R KO vs wildtype) was “statistically significant increase in catalepsy” and the “Individual animal values (FigS11d)” value (mice [2]; CB1R KO mice, 1 mg/kg) was 3.1 and 2.8 and 2.7 and 1.8. The “Individual animal values (FigS11d)” value (mice [2]; CB2R KO mice, 0.2 mg/kg) was 2.2 and 2.7 and 4 and 4.2 and 2.8, the “Individual animal values (FigS11d)” value (mice [2]; CB2R KO mice, 0.5 mg/kg) was 3.3 and 4.3 and 29.3 and 28 and 5.6 and the “Individual animal values (FigS11d)” value (mice [2]; CB2R KO mice, 1 mg/kg) was 40 and 2. The “Individual animal values (FigS11d)” value (mice [2]; WT mice, 0.2 mg/kg) was 7 and 4 and 15 and 2, the “Individual animal values (FigS11d)” value (mice [2]; WT mice, 0.5 mg/kg) was 2.4 and 2.2 and 2.3 and 0.7 and 1 and 2.7 and 2.1 and 1.4 and 2 and 10 and 30 and 20 and 5 and the “Individual animal values (FigS11d)” value (mice [2]; WT mice, 1 mg/kg) was 16 and 5 and 4 and 30 and 6. For the same molecule, the “dose at which catalepsy starts” value (mice [2]; i.p.) was 1 mg/kg, the “catalepsy, latency to move all four paws” value (mice [2]; i.p., ‘1350 at 0.2 or 0.5 mg/kg, haloperidol 1.0 mg/kg) was “did not induce cataleptic behavior” and the “acetone test response after spared nerve injury (Figure5b), individual animals” value (“acetone test response” for short) (mice [3]; Dose 0.05 mg/kg) was 48 and 66 and 108 and 56 and 46. For the same molecule, the “acetone test response” value (mice [3]; Dose 0.1 mg/kg) was 38 and 48 and 28 and 64 and 18, the “acetone test response” value (mice [3]; Dose 0.2 mg/kg) was 26 and 54 and 32 and the “lowest dose with significant anti-allodynia, acetone test” value (mice [3]; i.p.) was 0.05 mg/kg. For the same molecule, the “effect on acetone-induced nocifensive behaviors” value (mice [3]; spared nerve injury, i.p.) was “strongly reduced spared nerve injury-induced cold allodynia”, the “tail flick latency on cotreatment with morphine” value (mice [4]; 0.05 and 0.1 mg/kg plus morphine 3.0 mg/kg i.p.) was “significantly longer tail-flick latencies than did mice injected with morphine alone” and the “effect of CB1R knockout on analgesia, tail flick” value (mice [4]; CB1R KO mice) was “completely blocked the analgesic effect”. The “analgesic response normalised to baseline, WT vs CB1R KO (Figure5d), individual animals” value (mice [4]; CB1R KO mice) was 106.345 and 98.767 and 101.721 and 166.196 and 107.501, the “Response relative to Baseline, individual animals (FigS11c)” value (mice [4]; CB2R KO mice) was 164.985 and 191.573 and 174.006 and 295.549 and 230.504 and 308.843 and 149.555 and 202.493 and 243.323 and 186.825 and the “tail flick response normalised to baseline (Figure4a), individual animals” value (“tail flick response normalised” below) (mice [4]; Dose 0.05 mg/kg) was 119.013 and 100.323 and 160.799 and 150.926 and 127.123. The “tail flick response normalised” value (mice [4]; Dose 0.1 mg/kg) was 155.51 and 183.368 and 185.307 and 158.155 and 125.713, the “tail flick response normalised” value (mice [4]; Dose 0.2 mg/kg) was 215.281 and 170.849 and 208.757 and 269.409 and 238.025 and the “tail flick response normalised” value (mice [4]; Dose 0.5 mg/kg) was 229.386 and 270.644 and 271.701 and 225.86 and 268.175. For the same molecule, the “analgesic response normalised to baseline, WT vs CB1R KO (Figure5d), individual animals” value (mice [4]; WT mice) was 175.053 and 136.358 and 121.523 and 181.234 and 162.69 and 195.08 and 109.284 and 151.687 and 140.809 and 142.663, the “Response relative to Baseline, individual animals (FigS11c)” value (mice [4]; WT mice) was 303.35 and 281.096 and 250.176 and 198.641 and 149.684 and 198.173 and 421.644 and 117.592 and 166.55 and 75.1933 and the “lowest dose with significantly increased tail flick latency” value (mice [4]; i.p., 30 min after injection) was 0.1 mg/kg.
